Measured values as given in patent US10183008B2, “Treatment of prolonged status epilepticus” (University of South Carolina, priority 2011, dated 2019).

Experiments:
[1] = system: tonic inhibition (GABAergic tonic current); assay: Brain slice whole-cell electrophysiology: tonic current in dentate granule cells; assay type: cell-based, rat; conditions: for effect on tonic inhibition: 1 μM DZP, 100 μM STP
prolonged SE = conditions: 45 minutes after onset; cited from earlier work
[2] = system: lithium-pilocarpine model of S.E.; assay: Lithium-pilocarpine model of status epilepticus, behavioral seizure scoring (Racine scale); assay type: in vivo, rat; conditions: for termination of brief behavioral convulsions: postnatal 20-25 day male rats, drug i.p. at onset of first stage 3 convulsion, score 15 min after
Experimental: The ED50 was determined based on the fit of the sigmoidal dose-response curve.
Experiments were performed on male rats age 5-65 days. SE was induced using lithium pilocarpine. Brief SE was defined as the onset of stage 3 seizures. Prolonged SE was defined as 45 minutes of SE following the first stage 3 seizure.
Status epilepticus was induced in male Sprague Dawley rats (5-65 days old; Harlan Sprague Dawley, Indianapolis, Ind.) by intraperitoneal injection of lithium chloride (LiCl) at 127 mg/kg followed 15-20 hr later by scopolamine methylbromide (2 mg/kg) and then pilocarpine at 60 mg/kg. After pilocarpine injection, the rats were observed continuously for occurrence of behavioral seizures. Seizures were scored according to the Racine scale with slight modifications: 0-normal behavior; 1-immobile, staring, curled-up posture; 2-automatisms: repetitive blinking, chewing, headbobbing, vibrissae twitching, scratching, face-washing; 3-forelimb/hindlimb myoclonic jerking, head tremor; 4-rearing, whole body clonus; 5-loss of posture, rearing and falling. EEG recordings, have established that the cortical electrographic onset of SE corresponds to the onset of forelimb clonus, or stage 3 seizures. Therefore, diazepam or stiripentol was administered either at the onset of S3 seizures (brief SE) or 45 min after S3 seizure onset (prolonged SE). The seizure scores were taken continuously, but specifically 15 mins after the first S3 seizure, and 15 mins after treatment. The scores represented in the data were recorded 15 minutes following treatment. Solutions of lithium, scopolamine, pilocarpine and stiripentol were made fresh on the day of the experiments. Lithium, scopolamine and pilocarpine were dissolved in 0.9% saline. Stiripentol was dissolved in 20% propylene glycol and 80% ethanol. Diazepam was purchased commercially in a solution of 10% propylene glycol and 80% ethanol. All drugs were administered via intraperitoneal (i.p) injection.

[3] = system: GABAAR subunit combinations; conditions: STP 100 μM, GABA 0.3 μM, n=5-9, HEK-293T; cited from earlier work

| SMILES | effect on tonic inhibition [1] | potentiation of tonic current during prolonged SE ([1]; prolonged SE, DZP 1 μM, STP 100 μM, n=3-4) | fold decrease in efficacy at terminating prolonged SE (prolonged SE) | termination of brief behavioral convulsions [2] | pharmacoresistance following prolonged SE (shift of ED50 for seizure termination) ([2]; prolonged SE (45 min after stage 3 onset) vs brief SE) | anticonvulsant effect in 60-65 compared to 20-25 day old rats ([2]; age comparison) | effect on GABA current [3] |
| --- | --- | --- | --- | --- | --- | --- | --- |
| CN1C(=O)CN=C(c2ccccc2)c2cc(Cl)ccc21 [DZP, diazepam] | increase tonic inhibition | less effective at potentiating tonic current | 9-10 fold | terminate brief behavioral convulsions | develops pharmacoresistance |  |  |
| CC(C)(C)C(O)/C=C/c1ccc2c(c1)OCO2 (stereo not drawn) [STP, 1-(3,4-methylenedioxyphenyl)-4,4-dimethylpent-1-en-3-ol] | increase tonic inhibition |  |  | terminate brief behavioral convulsions |  | reduced | increases GABA (0.3 μM) current at all tested GABAAR subunit combinations |
